Values after ≈ are worked out from the molar mass of the structure shown.
What was measured:
Staphylococcus aureus [1] = assay: Antibacterial activity against vancomycin-sensitive methicillin-resistant Staphylococcus aureus assessed as post antibiotic effect at 10 times MIC concentration incubated for 1 hr measured after 1:1000 dilution by viable plate count method; type: functional
Haemophilus influenzae [2] = assay: Antibacterial activity against amoxicillin, clavulanate-resistant Haemophilus influenzae expressing beta-lactamase assessed as post antibiotic effect at 6 times MIC concentration incubated for 1 hr measured after 1:1000 dilution by viable plate count method; type: functional
Acinetobacter baumannii [3] = assay: Antibacterial activity against Acinetobacter baumannii assessed as sub-MIC effect at 0.2 times MIC concentration incubated for 1 hr by viable plate count method; type: functional
Escherichia coli [4] = assay: Antibacterial activity against Escherichia coli assessed as post antibiotic effect at 6 times MIC concentration incubated for 1 hr measured after 1:1000 dilution by viable plate count method; type: functional
Acinetobacter baumannii [5] = assay: Antibacterial activity against Acinetobacter baumannii assessed as sub-MIC effect at 0.3 times MIC concentration incubated for 1 hr by viable plate count method; type: functional
Staphylococcus aureus [6] = assay: Antibacterial activity against vancomycin-sensitive methicillin-resistant Staphylococcus aureus assessed as post-antibiotic sub-MIC effect at 0.4 times MIC concentration pretreated with 10 times MIC concentration for 1 hr followed by 1:1000 dilution by viable plate count method; type: functional
Enterobacter cloacae [7] = assay: Antibacterial activity against Enterobacter cloacae assessed as post-antibiotic sub-MIC effect at 0.4 times MIC concentration pretreated with 10 times MIC concentration for 1 hr followed by 1:1000 dilution by viable plate count method; type: functional
Staphylococcus aureus [8] = assay: Antibacterial activity against vancomycin-sensitive methicillin-resistant Staphylococcus aureus assessed as sub-MIC effect at 0.4 times MIC concentration incubated for 1 hr by viable plate count method; type: functional
Enterococcus faecalis = assay: Antibacterial activity against vancomycin-resistant Enterococcus faecalis assessed as post-antibiotic sub-MIC effect at 0.3 times MIC concentration pretreated with 10 times MIC concentration for 1 hr followed by 1:1000 dilution by viable plate count method; type: functional
Enterobacter cloacae [9] = assay: Antibacterial activity against Enterobacter cloacae assessed as post antibiotic effect at 2 times MIC concentration incubated for 1 hr measured after 1:1000 dilution by viable plate count method; type: functional
Haemophilus influenzae [10] = assay: Antibacterial activity against amoxicillin, clavulanate-resistant Haemophilus influenzae expressing beta-lactamase assessed as post-antibiotic sub-MIC effect at 0.3 times MIC concentration pretreated with 6 times MIC concentration for 1 hr followed by 1:1000 dilution by viable plate count method; type: functional
Klebsiella pneumoniae [11] = assay: Antibacterial activity against Klebsiella pneumoniae assessed as post-antibiotic sub-MIC effect at 0.4 times MIC concentration pretreated with 2 times MIC concentration for 1 hr followed by 1:1000 dilution by viable plate count method; type: functional
Streptococcus pneumoniae [12] = assay: Antibacterial activity against penicillin-resistant Streptococcus pneumoniae assessed as sub-MIC effect at 0.4 times MIC concentration incubated for 1 hr by viable plate count method; type: functional
Staphylococcus aureus [13] = assay: Antibacterial activity against vancomycin-intermediate methicillin-resistant Staphylococcus aureus assessed as post-antibiotic sub-MIC effect at 0.4 times MIC concentration pretreated with 6 times MIC concentration for 1 hr followed by 1:1000 dilution by viable plate count method; type: functional
Haemophilus influenzae [14] = assay: Antibacterial activity against beta-lactamase deficient and ampicillin-resistant Haemophilus influenzae assessed as sub-MIC effect at 0.2 times MIC concentration incubated for 1 hr by viable plate count method; type: functional
Acinetobacter baumannii [15] = assay: Antibacterial activity against Acinetobacter baumannii assessed as post antibiotic effect at 6 times MIC concentration incubated for 1 hr measured after 1:1000 dilution by viable plate count method; type: functional
Escherichia coli [16] = assay: Antibacterial activity against Escherichia coli assessed as post-antibiotic sub-MIC effect at 0.3 times MIC concentration pretreated with 10 times MIC concentration for 1 hr followed by 1:1000 dilution by viable plate count method; type: functional
Klebsiella pneumoniae [17] = assay: Antibacterial activity against Klebsiella pneumoniae assessed as post-antibiotic sub-MIC effect at 0.3 times MIC concentration pretreated with 2 times MIC concentration for 1 hr followed by 1:1000 dilution by viable plate count method; type: functional
Acinetobacter baumannii [18] = assay: Antibacterial activity against multidrug-resistant Acinetobacter baumannii producing OXA-24 and OXA-51 beta-lactamases by macrodilution method; type: functional
Escherichia coli [19] = assay: Antibacterial activity against Escherichia coli assessed as sub-MIC effect at 0.2 times MIC concentration incubated for 1 hr by viable plate count method; type: functional
Escherichia coli [20] = assay: Antibacterial activity against Escherichia coli assessed as post-antibiotic sub-MIC effect at 0.4 times MIC concentration pretreated with 6 times MIC concentration for 1 hr followed by 1:1000 dilution by viable plate count method; type: functional
Escherichia coli [21] = assay: Antibacterial activity against Escherichia coli by macrodilution method; type: functional
[22] = Drug level in patient serum at 100 mg, iv followed by 50 mg every 12 hrs after 60 mins post dose; type: ADME, organism-based; details: human, read-out: Drug uptake
Haemophilus influenzae [23] = assay: Antibacterial activity against beta-lactamase deficient ampicillin-resistant Haemophilus influenzae assessed as post-antibiotic sub-MIC effect at 0.4 times MIC concentration pretreated with 10 times MIC concentration for 1 hr followed by 1:1000 dilution by viable plate count method; type: functional
Staphylococcus aureus [24] = assay: Antibacterial activity against vancomycin-sensitive methicillin-resistant Staphylococcus aureus assessed as post-antibiotic sub-MIC effect at 0.3 times MIC concentration pretreated with 6 times MIC concentration for 1 hr followed by 1:1000 dilution by viable plate count method; type: functional
Acinetobacter baumannii [25] = assay: Antibacterial activity against Acinetobacter baumannii assessed as sub-MIC effect at 0.4 times MIC concentration incubated for 1 hr by viable plate count method; type: functional
Streptococcus pneumoniae [26] = assay: Antibacterial activity against penicillin-intermediate Streptococcus pneumoniae by macrodilution method; type: functional
Acinetobacter baumannii [27] = assay: Antibacterial activity against multidrug-resistant Acinetobacter baumannii producing OXA-24 and OXA-51 beta-lactamases assessed as sub-MIC effect at 0.4 times MIC concentration incubated for 1 hr by viable plate count method; type: functional
Staphylococcus aureus [28] = assay: Antibacterial activity against vancomycin-sensitive methicillin-resistant Staphylococcus aureus assessed as post antibiotic effect at 6 times MIC concentration incubated for 1 hr measured after 1:1000 dilution by viable plate count method; type: functional
Klebsiella pneumoniae [29] = assay: Antibacterial activity against Klebsiella pneumoniae assessed as sub-MIC effect at 0.4 times MIC concentration incubated for 1 hr by viable plate count method; type: functional
Klebsiella pneumoniae [30] = assay: Antibacterial activity against Klebsiella pneumoniae assessed as sub-MIC effect at 0.3 times MIC concentration incubated for 1 hr by viable plate count method; type: functional
Klebsiella pneumoniae [31] = assay: Antibacterial activity against Klebsiella pneumoniae assessed as post-antibiotic sub-MIC effect at 0.3 times MIC concentration pretreated with 10 times MIC concentration for 1 hr followed by 1:1000 dilution by viable plate count method; type: functional
Streptococcus pneumoniae [32] = assay: Antibacterial activity against penicillin-resistant Streptococcus pneumoniae assessed as sub-MIC effect at 0.3 times MIC concentration incubated for 1 hr by viable plate count method; type: functional
Acinetobacter baumannii [33] = assay: Antibacterial activity against Acinetobacter baumannii assessed as post-antibiotic sub-MIC effect at 0.2 times MIC concentration pretreated with 6 times MIC concentration for 1 hr followed by 1:1000 dilution by viable plate count method; type: functional
Acinetobacter baumannii [34] = assay: Antibacterial activity against multidrug-resistant Acinetobacter baumannii producing OXA-24 and OXA-51 beta-lactamases assessed as post-antibiotic sub-MIC effect at 0.4 times MIC concentration pretreated with 10 times MIC concentration for 1 hr followed by 1:1000 dilution by viable plate count method; type: functional
Enterobacter cloacae [35] = assay: Antibacterial activity against Enterobacter cloacae by macrodilution method; type: functional

CN(C)c1cc(NC(=O)CNC(C)(C)C)c(O)c2c1C[C@H]1C[C@H]3[C@H](N(C)C)C(O)=C(C(N)=O)C(=O)[C@@]3(O)C(O)=C1C2=O [TIGECYCLINE]
PAE (Staphylococcus aureus [1]): 3.2 h
PAE (Haemophilus influenzae [2]): 3.9 h
PAE (Acinetobacter baumannii [3]): 0.3 h
PAE (Escherichia coli [4]): 1.9 h
PAE (Acinetobacter baumannii [5]): 1.5 h
PAE (Staphylococcus aureus [6]): 6.7 h
PAE (Enterobacter cloacae [7]): 7.2 h
PAE (Staphylococcus aureus [8]): 0.9 h
PAE (Enterococcus faecalis): 10.5 h
PAE (Enterobacter cloacae [9]): 1 h
PAE (Haemophilus influenzae [10]): 4.7 h
PAE (Klebsiella pneumoniae [11]): 2.6 h
PAE (Streptococcus pneumoniae [12]): 0.7 h
PAE (Staphylococcus aureus [13]): 10 h
PAE (Haemophilus influenzae [14]): 0.8 h
PAE (Acinetobacter baumannii [15]): 1.8 h
PAE (Escherichia coli [16]): 2.2 h
PAE (Klebsiella pneumoniae [17]): 2 h
MIC (Acinetobacter baumannii [18]): 2 mg/L (≈ 3.41 µM)
PAE (Escherichia coli [19]): 0 h
PAE (Escherichia coli [20]): 3.3 h
MIC (Escherichia coli [21]): 0.12 mg/L (≈ 0.205 µM)
concentration at 1 h [22]: 0.6 µg/mL
PAE (Haemophilus influenzae [23]): 2.8 h
PAE (Staphylococcus aureus [24]): 4.9 h
PAE (Acinetobacter baumannii [25]): 11.2 h
MIC (Streptococcus pneumoniae [26]): 0.06 mg/L (≈ 0.102 µM)
PAE (Acinetobacter baumannii [27]): 1.9 h
PAE (Staphylococcus aureus [28]): 2.9 h
PAE (Klebsiella pneumoniae [29]): 0.7 h
PAE (Klebsiella pneumoniae [30]): 0.4 h
PAE (Klebsiella pneumoniae [31]): 2 h
PAE (Streptococcus pneumoniae [32]): 0.5 h
PAE (Acinetobacter baumannii [33]): 5.2 h
PAE (Acinetobacter baumannii [34]): 3.8 h
MIC (Enterobacter cloacae [35]): 0.5 mg/L (≈ 0.854 µM)
